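Compound exposure: 48 hours, 5 concentrations, 96-well plates. GI50: concentration for 50% inhibition of growth. Definition used: TGI = concentration required for complete inhibition of growth.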
Assays:
Experiment in all cases: NCI tumour cell line growth inhibition, 48 h
SW-620 colon = test system: SW-620 colon
UACC-257 melanoma = test system: UACC-257 melanoma
SK-MEL-5 melanoma = test system: SK-MEL-5 melanoma
HT29 colon = test system: HT29 colon
HS 578T breast = test system: HS 578T breast
OVCAR-8 ovarian = test system: OVCAR-8 ovarian
SNB-19 CNS = test system: SNB-19 CNS
CAKI-1 renal = test system: CAKI-1 renal
HOP-92 NSCLC = test system: HOP-92 NSCLC
COLO 205 colon = test system: COLO 205 colon
PC-3 prostate = test system: PC-3 prostate
HCC-2998 colon = test system: HCC-2998 colon
SF-268 CNS = test system: SF-268 CNS
NCI-H460 lung = test system: NCI-H460 lung
MOLT-4 leukemia = test system: MOLT-4 leukemia
TK-10 renal = test system: TK-10 renal
ACHN renal = test system: ACHN renal
RXF 393 renal = test system: RXF 393 renal
T-47D breast = test system: T-47D breast
MALME-3M melanoma = test system: MALME-3M melanoma
786-0 renal = test system: 786-0 renal
UACC-62 melanoma = test system: UACC-62 melanoma
SK-OV-3 ovarian = test system: SK-OV-3 ovarian
HL-60(TB) leukemia = test system: HL-60(TB) leukemia
MDA-MB-468 breast = test system: MDA-MB-468 breast
BT-549 breast = test system: BT-549 breast
CCRF-CEM leukemia = test system: CCRF-CEM leukemia
OVCAR-4 ovarian = test system: OVCAR-4 ovarian
HCT-15 colon = test system: HCT-15 colon
DU-145 prostate = test system: DU-145 prostate

With COc1nc(N)ncc1-c1ccc2ncnc(N3CCc4cc(F)c(Cl)cc43)c2c1 the TGI (SW-620 colon) was > 100 µM, the GI50 (UACC-257 melanoma) was 8.26 µM and the TGI (UACC-257 melanoma) was 83.6 µM. For the same molecule, the GI50 (SK-MEL-5 melanoma) was 4.15 µM, the TGI (SK-MEL-5 melanoma) was > 100 µM and the GI50 (HT29 colon) was 7.86 µM. The TGI (HT29 colon) was 52.2 µM, the GI50 (HS 578T breast) was 2 µM and the TGI (HS 578T breast) was 8.4 µM. For the same molecule, the GI50 (OVCAR-8 ovarian) was 2.33 µM, the TGI (OVCAR-8 ovarian) was 9.2 µM and the GI50 (SNB-19 CNS) was 2.21 µM. The TGI (SNB-19 CNS) was 12.2 µM, the GI50 (CAKI-1 renal) was 1.2 µM and the TGI (CAKI-1 renal) was 3.78 µM. The GI50 (HOP-92 NSCLC) was 1.81 µM, the TGI (HOP-92 NSCLC) was 7.23 µM and the GI50 (COLO 205 colon) was 3.37 µM. The TGI (COLO 205 colon) was > 100 µM, the GI50 (PC-3 prostate) was 10.6 µM and the TGI (PC-3 prostate) was > 100 µM. The GI50 (HCC-2998 colon) was 2.79 µM, the TGI (HCC-2998 colon) was 10.1 µM and the GI50 (SF-268 CNS) was 12.3 µM. The TGI (SF-268 CNS) was > 100 µM, the GI50 (NCI-H460 lung) was 2.65 µM and the TGI (NCI-H460 lung) was 7.97 µM. The GI50 (MOLT-4 leukemia) was 11.7 µM, the TGI (MOLT-4 leukemia) was > 100 µM and the GI50 (TK-10 renal) was 0.703 µM. For the same molecule, the TGI (TK-10 renal) was 4.23 µM, the GI50 (ACHN renal) was 1.21 µM and the TGI (ACHN renal) was 4.22 µM. The GI50 (RXF 393 renal) was 1.5 µM, the TGI (RXF 393 renal) was 5.28 µM and the GI50 (T-47D breast) was 1.61 µM. It also gave a TGI (T-47D breast) of 7.67 µM, a GI50 (MALME-3M melanoma) of 8.68 µM and a TGI (MALME-3M melanoma) of 49.4 µM. It also gave a GI50 (786-0 renal) of 1.49 µM, a TGI (786-0 renal) of 3.38 µM and a GI50 (UACC-62 melanoma) of 3.92 µM. For the same molecule, the TGI (UACC-62 melanoma) was 19.9 µM, the GI50 (SK-OV-3 ovarian) was 1.62 µM and the TGI (SK-OV-3 ovarian) was 4.03 µM. For the same molecule, the GI50 (HL-60(TB) leukemia) was 3.08 µM, the TGI (HL-60(TB) leukemia) was > 100 µM and the GI50 (MDA-MB-468 breast) was 0.269 µM. The TGI (MDA-MB-468 breast) was 1.81 µM, the GI50 (BT-549 breast) was 6.44 µM and the TGI (BT-549 breast) was > 100 µM. For the same molecule, the GI50 (CCRF-CEM leukemia) was 26 µM, the TGI (CCRF-CEM leukemia) was > 100 µM and the GI50 (OVCAR-4 ovarian) was 1.87 µM. For the same molecule, the TGI (OVCAR-4 ovarian) was 4.28 µM, the GI50 (HCT-15 colon) was 3.04 µM and the TGI (HCT-15 colon) was 24.7 µM. For the same molecule, the GI50 (DU-145 prostate) was 3.82 µM and the TGI (DU-145 prostate) was 36.2 µM.

From PubChem BioAssay (NCI)
